Assay results published in patent EP0643964A2 (priority 1993, dated 1995).
Values joined by “and” are separate entries in the source; they are usually repeats but may differ in a detail not shown here. Identical values can stand only once.

Experiments:
[1] = target: pseudocholines-terase (Homo sapiens, UniProt P06276); details: cited from earlier work
[2] = in vivo; cited from earlier work
[3] = global anesthesia by intravenous route; one death in more than 6200 patients; cited from earlier work
[4] = test system: Giardia lamblia; assay: Patients with malabsorption syndrome (MAS) caused by Giardia lamblia; assay type: in vivo, human; details: Volunteer # 1, 7 days of treatment; recurrence one month later
Text: Volunteer # 1: Type II MAS with positive isolation of Giardia lamblia in duodenal washings and confirmation of the disease by histopathology. […] One month later, patient 1 presented symptoms and signs of recurrence of the disease, with positive isolation of parasites in feces.
Volunteer # 2: with diffuse abdominal pain, loss of body weight and steatorrhea.

[5] = test system: herpes simplex; assay: Evolution of recidivant periorificial herpes simplex infection in volunteers; assay type: in vivo, human
Method: Patients were divided into 3 groups: one of the groups (n=4) received acyclovir by oral route and topical applications of the same drug. […] Experiments began with the appearance of the next episode of herpes, just in the moment when vesicles appeared.
All these patients were controlled monthly during the following 4 months. During this time, group A patients presented episodes with a pattern similar to that they had before the experiment was performed. […] The remaining two presented an episode of herpes 2.8 and 3.3 months later.

[6] = test system: M3 tumor; assay: M3 transplanted mice, tumor area (lidocaine and epidoxorrubicine); assay type: in vivo
[7] = herpes simplex episode, ACV oral+topical, lidocaine 5 ml 2% i.v. twice a day 2 days

Chain of pseudocholines-terase (P06276 29-602, species assumed): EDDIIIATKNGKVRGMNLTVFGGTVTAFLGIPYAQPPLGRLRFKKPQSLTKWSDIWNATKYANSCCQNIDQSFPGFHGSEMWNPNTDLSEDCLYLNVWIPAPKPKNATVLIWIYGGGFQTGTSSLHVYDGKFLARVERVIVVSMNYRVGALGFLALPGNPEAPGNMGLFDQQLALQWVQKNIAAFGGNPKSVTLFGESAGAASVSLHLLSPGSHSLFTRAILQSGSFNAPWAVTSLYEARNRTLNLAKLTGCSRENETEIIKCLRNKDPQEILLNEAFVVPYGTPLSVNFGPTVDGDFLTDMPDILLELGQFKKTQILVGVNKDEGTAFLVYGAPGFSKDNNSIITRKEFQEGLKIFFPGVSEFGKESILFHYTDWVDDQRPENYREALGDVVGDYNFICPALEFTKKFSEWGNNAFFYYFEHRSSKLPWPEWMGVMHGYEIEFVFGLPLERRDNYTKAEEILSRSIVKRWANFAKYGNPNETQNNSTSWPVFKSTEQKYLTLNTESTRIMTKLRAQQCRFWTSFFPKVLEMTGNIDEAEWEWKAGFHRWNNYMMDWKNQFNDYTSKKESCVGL

## CCN(CC)CCOC(=O)c1ccc(N)cc1 [procaine]
[1]; hydrolysis in blood plasma and liver
  cleavage rate: 20 mg. per minute
[2]
  half life: about 0.7 minutes
[3]
  deaths: less than 0.01%

## Cc1ncc([N+](=O)[O-])n1CCO [metronidazole]
[4]
  Clinical evolution: good evolution

## CCCCNc1ccc(C(=O)OCCN(C)C)cc1 [tetracaine]
[1]
  velocity of cleavage relative to procaine: about 5 times more slowly than procaine

## Nc1nc2c(ncn2COCCO)c(=O)[nH]1 [ACV, acyclovir]
[5]; [7]
  Duration of lesions: 7 days
  Duration of symptoms: 4 days
[5]; individual patients, followed monthly for 4 months
  FIRST EPISODE AFTER TREATMENT: 31 d. and 29 d d. and 33 d d. and 40 d.

## COc1cccc2c1C(=O)c1c(O)c3c(c(O)c1C2=O)C[C@@](O)(C(=O)CO)C[C@@H]3O[C@H]1C[C@H](N)[C@@H](O)[C@H](C)O1 [epidoxorrubicine]
[6]; day 7 p-t (day 0), lidocaine 0.1 ml 0.05% every 7 days, epidoxorrubicine 0.125 ml 0.2% every 7 days, combination: lidocaine 2 days after epidoxorrubicine
  Area (tumor): 0.46
[6]; day 10 p-t, regimens as Table 5 footnotes, saline control 0.92
  Area (tumor): 0.90
[6]; day 10 p-t, saline control 103.47
  I/Ø: Percentual increment over tumor in day 0 (day 7 p-t): 95.65%
[6]; day 12 p-t, regimens as Table 5 footnotes, saline control 1.56
  Area (tumor): 1.56
[6]; day 12 p-t, saline control 245.61
  I/Ø: Percentual increment over tumor in day 0 (day 7 p-t): 238.04%
[6]; day 14 p-t, regimens as Table 5 footnotes, saline control 2.06
  Area (tumor): 2.36
[6]; day 14 p-t, saline control 357.57
  I/Ø: Percentual increment over tumor in day 0 (day 7 p-t): 413.04%
[6]; day 16 p-t, saline control 516.74
  I/Ø: Percentual increment over tumor in day 0 (day 7 p-t): 316.30%
[6]; day 18 p-t, regimens as Table 5 footnotes, saline control 3.61
  Area (tumor): 2.41
[6]; day 18 p-t, saline control 701.39
  I/Ø: Percentual increment over tumor in day 0 (day 7 p-t): 422.83%
[6]; day 21 p-t, regimens as Table 5 footnotes, saline control 4.61
  Area (tumor): 3.39
[6]; day 21 p-t, saline control 923.86
  I/Ø: Percentual increment over tumor in day 0 (day 7 p-t): 637.68%
[6]; day 23 p-t, regimens as Table 5 footnotes, saline control 5.49
  Area (tumor): 3.57
[6]; day 23 p-t, saline control 1119.69
  I/Ø: Percentual increment over tumor in day 0 (day 7 p-t): 676.81%
[6]; day 25 p-t, regimens as Table 5 footnotes, saline control 6.24
  Area (tumor): 4.16
[6]; day 25 p-t, saline control 1286.33
  I/Ø: Percentual increment over tumor in day 0 (day 7 p-t): 804.35%
[6]; mouse, in vivo
  Area (tumor): 1.92
